Experimental data taken from patent US6603023B2 (priority 1996, dated 2003).

Experiment: in vivo
Conditions: male, athymic nude (nu/nu), outbred, Swiss background, mouse, in vivo, ip
Description: DMSO was used as a vehicle for epothilones. Each mouse received ≦40 μL DMSO in all experiments.
Athymic nude mice (nu/nu) were used for MX-1 and MCF-7/Adr human mammary carcinoma xenografts. Mice were obtained from Taconic Laboratory Animals and Service (Germantown, N.Y.: outbred, Swiss background).

## CC(=O)O[C@H]1C(=O)[C@@]2(C)[C@H]([C@H](OC(=O)c3ccccc3)[C@]3(O)C[C@H](OC(=O)[C@H](O)[C@@H](NC(=O)c4ccccc4)c4ccccc4)C(C)=C1C3(C)C)[C@]1(OC(C)=O)CO[C@@H]1C[C@@H]2O [Taxol ®, paclitaxel]
  LD50: 12 mg/kg
